Assay results published in publication PMC6351529, “Novel carboxylate-based glycolipids: TLR4 antagonism, MD-2 binding and self-assembly properties” (Scientific Reports, 2019).

Key:
[1] = design: method as in PMID 24339336; settings: cited from earlier work
human MD-2 (hMD-2) = molecular target: T1, human MD-2 (hMD-2) (Homo sapiens, UniProt Q9Y6Y9); test: Surface plasmon resonance (SPR) on immobilized hMD-2; settings: 1:1 Langmuir binding model, 25 °C
T1 construct: made in house; host or cells: Pichia pastoris
T1 sequence (Q9Y6Y9 19-160): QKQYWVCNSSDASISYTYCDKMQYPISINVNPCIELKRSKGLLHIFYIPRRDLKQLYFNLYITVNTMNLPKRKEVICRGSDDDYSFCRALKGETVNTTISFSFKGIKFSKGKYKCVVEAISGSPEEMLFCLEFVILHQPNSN
Experimental: SPR experimental curve optimal fitting was obtained by assuming 1:1 ligand/MD-2 binding stoichiometry.
The binding affinity of the compounds to recombinant hMD-2 was determined using a Biacore X100 with an NTA sensor chip (Biacore, GE Healthcare, Uppsala, Sweden). Briefly, 0.5 μM hMD-2 (in 50 mM TRIS, 150 mM NaCl, 0.5% Tween 20, pH 7.5) was immobilized onto the sensor chip previously activated with 1-min. pulse of 10 mM NiSO4. First flow cell was used as a reference surface to control non-specific binding. Both flow cells were injected with the analyte (in PBS, 5% DMSO, 5% EtOH, pH 7.5) at a flow rate of 10 μL/min at 25 °C in increasing concentrations. The data were analyzed with Biacore Evaluation software. KD values were calculated by global fitting of the equilibrium binding responses from various concentrations of analytes using a 1:1 Langmuir binding model.

human TLR4 = molecular target: T2, human TLR4 (Homo sapiens, UniProt O00206+Q9Y6Y9); test: Inhibition of LPS-stimulated TLR4 activation in HEK293-Blue hTLR4 cells (SEAP reporter); format: cell-based; settings: LPS 100 ng/mL, 15 min pre-incubation, 16 h, serum-free DMEM
T2 construct: host or cells: HEK-Blue hTLR4 (HEK293)
T2 sequence (O00206 24-839, one chain of several): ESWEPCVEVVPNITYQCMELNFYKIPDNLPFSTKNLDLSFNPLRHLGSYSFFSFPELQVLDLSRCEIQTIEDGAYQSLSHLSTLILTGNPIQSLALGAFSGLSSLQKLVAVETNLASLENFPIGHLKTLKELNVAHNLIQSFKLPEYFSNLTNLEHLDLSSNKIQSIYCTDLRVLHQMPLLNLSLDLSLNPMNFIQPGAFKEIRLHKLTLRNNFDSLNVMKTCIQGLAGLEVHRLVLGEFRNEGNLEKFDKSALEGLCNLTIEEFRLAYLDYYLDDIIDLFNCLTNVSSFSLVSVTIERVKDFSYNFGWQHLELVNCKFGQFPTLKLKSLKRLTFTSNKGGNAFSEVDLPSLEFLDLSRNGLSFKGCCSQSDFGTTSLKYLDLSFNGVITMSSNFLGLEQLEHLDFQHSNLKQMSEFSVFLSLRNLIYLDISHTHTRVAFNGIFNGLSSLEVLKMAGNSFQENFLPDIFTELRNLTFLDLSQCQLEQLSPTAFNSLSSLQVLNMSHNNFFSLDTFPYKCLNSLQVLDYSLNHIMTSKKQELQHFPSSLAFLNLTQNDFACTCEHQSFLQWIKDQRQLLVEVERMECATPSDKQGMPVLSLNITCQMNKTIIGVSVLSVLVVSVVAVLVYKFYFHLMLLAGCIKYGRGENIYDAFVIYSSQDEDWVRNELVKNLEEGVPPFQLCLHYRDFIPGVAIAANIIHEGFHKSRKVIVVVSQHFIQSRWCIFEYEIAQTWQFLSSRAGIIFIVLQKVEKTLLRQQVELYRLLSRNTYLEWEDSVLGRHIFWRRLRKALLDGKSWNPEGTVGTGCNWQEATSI
Description: Synthetic monosaccharides were screened for their capacity to activate or inhibit LPS-stimulated TLR4 activation in HEK293-Blue hTLR4 cells. HEK293-Blue hTLR4 cells are HEK cells transfected in order to express the human receptors involved in LPS detection process (TLR4, MD-2 and membrane-bound CD14) and an inducible SEAP (secreted embryonic alkaline phosphatase) reporter gene placed under the control of NF-kB and AP-1-transcription factors. Activation of the MyD88-dependent TLR4 pathway promotes the production and secretion of SEAP in the cell culture media, which can be easily quantified.
SEAP levels in cell culture media were quantified after 16 hours as indicator of TLR4 activation. Data were normalized to stimulation with LPS alone and fitted to a sigmoidal 4 parameter logistic equation to obtain dose-effect curves (left panel). […] Briefly, cells were cultured in DMEM high glucose medium supplemented with 10% fetal bovine serum (FBS), 2 mM glutamine, antibiotics and 1 × HEK-Blue Selection (InvivoGen). Cells were detached using a cell scraper, counted and seeded in a 96-well multiwell plate at a density of 4 × 10^4 cells per well. […] For the antagonism evaluation, cells were stimulated with LPS (100 ng/mL, E. coli O55:B5, Sigma-Aldrich) after compounds pre-treatment and incubated for 16 hours as above. The SEAP-containing supernatants were collected and incubated with para-nitrophenyl phosphate (pNPP) for 2−4 h in the dark at room temperature. The wells optical density was determined using a microplate reader (labtech LT-4000) set to 405 nm.

[2] = test system: TLR4 signaling in RAW 264.7-Blue cells; test: LPS-induced TLR4 signaling in RAW 264.7-Blue cells (SEAP reporter, QUANTI-Blue); format: cell-based, murine
Experimental: To characterize the effect of synthetic compounds FP13-17 on cells naturally expressing TLR4, we used the murine macrophage RAW 264.7-Blue cell line, which are murine RAW 264.7 macrophages with chromosomal integration of SEAP reporter construct described in the previous section.
Figure 8 Inhibition of LPS-induced TLR4 signaling in RAW 264.7-Blue cells. […] SEAP reporter levels in the cell supernatant were determined by QuantiBlue Assay 24 h later. Error bars represent the standard deviation of the mean of technical triplicates. The graph is representative of at least three independent experiments.
Murine RAW 264.7-Blue cells (Invivogen) derived from the murine RAW 264.7 macrophages and stably expressing an NF-κB-inducible secreted alkaline phosphatase (SEAP) reporter gene were cultured in Dulbecco’s modified Eagle’s medium (DMEM), supplemented with 10% Fetal bovine serum (FBS), L-Glutamine (2 mM) and sodium pyruvate (0.4 mM), in the presence of selection antibiotic Zeocin (200 μg/mL). E. coli O111:B4 LPS was purchased from Invivogen. Bovine serum albumin (BSA) was purchased from Sigma-Aldrich. Compounds FP13-17 were reconstituted in DMSO/ethanol to provide a 10 mM stock solution. […] C57BL6/J mice were obtained from Janvier. […]
[…] 24 h later cell supernatants were analyzed for SEAP production by the QUANTI-Blue Assay (Invivogen).

C57BL/6 mice [3] = test: LPS-induced serum TNFα in mice, compound i.p.; format: in vivo, mouse; settings: 200 µg i.p., LPS 30 min later, serum after 4 h
Experimental: To further investigate whether carboxylate-based lipid A mimetics are able to inhibit LPS-induced signaling in vivo, we injected C57BL/6 mice i.p. with 200 µg of compound FP13 followed by the LPS injection 30 min later. […] The reason for this was unclear and we hypothesized poor distribution and absorption of the compound upon i.p. injection.
C57BL/6 mice were injected i.p. with 200 µg FP13. 30 min later, the mice were i.p. injected with 150 µg of Salmonella enterica LPS, or vehicle and PBS as controls. Mice were sacrificed 4 h later and serum was collected. Serum TNF concentration was determined by Luminex-based Bio-Plex Multiplex system. Error bars represent the standard deviation of the mean.

C57BL/6 mice [4] = test: LPS-induced lung neutrophilia in mice, intratracheal administration; format: in vivo, mouse; settings: 45 µg i.t. with 1 µg LPS, BAL after 16 h
Experimental: We therefore also explored the antagonistic capacity of FP13 in a different in vivo model, where LPS and FP13 were both administered locally in the lungs. Intratracheal (i.t.) instillation of LPS is known to cause an acute inflammatory response in mice, characterized by transient infiltration of neutrophils into the airways[57],[58].
PBS and vehicle were administered as controls. Mice were sacrificed 16 h later and neutrophilia in the BAL fluid was measured by flow cytometry. Error bars represent the standard deviation of the mean.

| Structure (SMILES) | Kd (human MD-2 (hMD-2)) | IC50 (human TLR4) | CMC [1] | antagonistic activity in presence of serum ([2]; DMEM supplemented with 10% FBS) | antagonistic activity in presence of BSA ([2]; serum-free with 4 or 20 mg/mL BSA) | effect on LPS-induced serum TNFα levels (C57BL/6 mice [3]) | effect on LPS-induced neutrophil infiltration into the airways (C57BL/6 mice [4]) |
| --- | --- | --- | --- | --- | --- | --- | --- |
| CCCCCCCCCCCCCC(=O)N[C@H]1[C@@H](OP(=O)(O)O)O[C@H](CO)[C@@H](OP(=O)(O)O)[C@@H]1OC(=O)CCCCCCCCCCCCC [FP7] |  |  | about 9 µM |  |  |  |  |
| CCCCC/C=C\C/C=C\CCCCCCCC(=O)N[C@H]1[C@H](OC(=O)CCC(=O)O)O[C@H](CO)[C@@H](OC(=O)CCC(=O)O)[C@@H]1OC(=O)CCCCCCC/C=C\C/C=C\CCCCC [FP14] | 35 µM | 4.35 µM |  |  |  |  |  |
| CCCCC/C=C\C/C=C\CCCCCCCC(=O)N[C@H]1[C@H](OC(=O)CCC(=O)O)O[C@H](CO)[C@@H](OC(=O)CCC(=O)O)[C@@H]1OC(=O)CCCCCCCCCCCCC [FP16] | 21 µM | 6.61 µM |  |  |  |  |  |

Continued by falling Kd (human MD-2 (hMD-2)), values first:

| Kd (human MD-2 (hMD-2)) | IC50 (human TLR4) | Structure (SMILES) | CMC [1] | antagonistic activity in presence of serum ([2]; DMEM supplemented with 10% FBS) | antagonistic activity in presence of BSA ([2]; serum-free with 4 or 20 mg/mL BSA) | effect on LPS-induced serum TNFα levels (C57BL/6 mice [3]) | effect on LPS-induced neutrophil infiltration into the airways (C57BL/6 mice [4]) |
| --- | --- | --- | --- | --- | --- | --- | --- |
| 14 µM | 3.5 µM | CCCCCCCC/C=C\CCCCCCCC(=O)N[C@H]1[C@H](OC(=O)CCC(=O)O)O[C@H](CO)[C@@H](OC(=O)CCC(=O)O)[C@@H]1OC(=O)CCCCCCCCCCCCC [FP15] |  |  |  |  |  |
| 12 µM | 2.7 µM | CCCCCCCCCCCCCC(=O)N[C@H]1[C@H](OC(=O)CCC(=O)O)O[C@H](CO)[C@@H](OC(=O)CCC(=O)O)[C@@H]1OC(=O)CCCCCCCCCCCCC [FP17] |  |  |  |  |  |
| 9 µM | 5.91 µM | CCCCCCCC/C=C\CCCCCCCC(=O)N[C@H]1[C@H](OC(=O)CCC(=O)O)O[C@H](CO)[C@@H](OC(=O)CCC(=O)O)[C@@H]1OC(=O)CCCCCCC/C=C\CCCCCCCC [FP13] |  | completely neutralized | strongly decreased | did not affect | failed to suppress |
